Experimental data from patent US11214803B2, “Modulators of YAP1 expression” (Ionis Pharmaceuticals, Inc., priority 2019, dated 2022).
Strand notation (5' to 3'): a small letter for the sugar, then the base; units joined by * are phosphorothioate-linked, units joined directly phosphodiester-linked; [ ] holds rarer units or linkages, { } end groups; capitals alone tell only the bases. k = constrained ethyl (cEt); [5mC] = 5-methylcytosine; d = 2'-deoxy (DNA)

How the values were obtained:
Assay type in all cases: cell-based, human
BICR56 cells = assay: Cell proliferation assay in BICR56 cells, CellTiter-Glo (Example 33); conditions: free uptake, approximately 144 hours
Protocol: Modified oligonucleotides described in the studies above were tested at various doses in squamous cell carcinoma adherent keratinocyte cell line BICR56. A control oligonucleotide 792169 was also tested.
(§1) Cultured BICR56 cells at a density of 1000 cells/well were treated using free uptake with modified oligonucleotides diluted to concentrations described in the tables below. After approximately 144 hours, cell proliferation was measured using the luminescent cell viability CellTiter-Glo® 2.0 Assay (Promega). Results are presented in the tables below as percent control of the amount of luminescence in samples treated with modified oligonucleotides relative to untreated control cells (% UTC).

CAL33 cells = assay: Cell proliferation assay in CAL33 cells, CellTiter-Glo (Example 36); conditions: free uptake, approximately 144 hours
Protocol: Modified oligonucleotides described in the studies above were tested at various doses in tongue squamous cell carcinoma line CAL33. A control oligonucleotide 792169, described herein above, was also tested.
as §1, with “CAL33” for “BICR56”

Yap1 mRNA [1] = assay: Yap1 mRNA in CAL27 cells, RNA analysis (Example 37); conditions: free uptake, approximately 48 hours
Protocol: Modified oligonucleotides described in the studies above were tested at various doses in tongue squamous cell carcinoma line CAL27. A control oligonucleotide 792169, described herein above, was also tested.
(§2) Cultured CAL27 cells at a density of 5000 cells per well were treated using free uptake with modified oligonucleotides diluted to concentrations described in the tables below. After approximately 48 hours, Yap1 mRNA levels were measured as previously described using the Human Yap1 primer-probe set RTS4814. Yap1 mRNA levels were normalized to actin-beta content, as measured by primer probe set RTS5002. Results are presented in the tables below as percent control of the amount of Yap1 mRNA relative to untreated control cells (% UTC).

Yap1 mRNA [2] = assay: Yap1 mRNA in SCC-9 cells, RNA analysis (Example 40); conditions: free uptake, approximately 48 hours
Protocol: Modified oligonucleotides described in the studies above were tested at various doses in tongue squamous cell carcinoma cell line SCC-9. A control oligonucleotide 792169, described herein above, was also tested.
as §2, with “SCC-9” for “CAL27”

Yap1 mRNA [3] = assay: Yap1 mRNA in SNU-899 cells, RNA analysis (Example 43); conditions: free uptake, approximately 48 hours
Protocol: (§3) Modified oligonucleotides described in the studies above were tested at various doses in laryngeal squamous cell carcinoma cell line SNU-899. A control oligonucleotide 792169, described herein above, was also tested.
as §2, with “SNU-899” for “CAL27”

SNU-899 cells = assay: Cell proliferation assay in SNU-899 cells, CellTiter-Glo (Example 43); conditions: free uptake, approximately 144 hours
Protocol: as §3
as §1, with “SNU-899” for “BICR56”

Yap1 mRNA [4] = assay: Yap1 mRNA in SNU-1076 cells, RNA analysis (Example 45); conditions: free uptake, approximately 48 hours
Protocol: Modified oligonucleotides described in the studies above were tested at various doses in upper aerodigestive tract/laryngeal squamous cell carcinoma line SNU-1076. A control oligonucleotide 792169, described herein above, was also tested.
as §2, with “SNU-1076” for “CAL27”

Yap1 mRNA [5] = assay: Yap1 mRNA in UPCI:SCC090 cells, RNA analysis (Example 47); conditions: free uptake, approximately 48 hours
Protocol: Modified oligonucleotides described in the studies above were tested at various doses in tongue squamous cell carcinoma cell line UPCI:SCC090. A control oligonucleotide 792169, described herein above, was also tested.
as §2, with “UPCI:SCC090” for “CAL27”

For “715487 (kA*kT*kT*dA*d[5mC]*dT*dT*d[5mC]*dA*dT*dA*dG*d[5mC]*kT*kT*kA) [compound 715487]”, the “Antiproliferative effect (cell proliferation, luminescence)” value (from here on “Antiproliferative effect”) (BICR56 cells; 0.04 μM) was 70 % UTC, the “Antiproliferative effect” value (BICR56 cells; 0.2 μM) was 26 % UTC and the “Antiproliferative effect” value (BICR56 cells; 1 μM) was 9 % UTC. The “Antiproliferative effect” value (BICR56 cells; 5 μM) was 4 % UTC, the “Antiproliferative effect” value (CAL33 cells; 0.04 μM) was 89 % UTC and the “Antiproliferative effect” value (CAL33 cells; 0.2 μM) was 79 % UTC. The “Antiproliferative effect” value (CAL33 cells; 1 μM) was 61 % UTC, the “Antiproliferative effect” value (CAL33 cells; 5 μM) was 37 % UTC and the “human Yap1 mRNA expression” value (Yap1 mRNA [1]; 0.08 μM) was 35 % UTC. The “human Yap1 mRNA expression” value (Yap1 mRNA [1]; 0.4 μM) was 23 % UTC, the “human Yap1 mRNA expression” value (Yap1 mRNA [1]; 2 μM) was 5 % UTC and the “human Yap1 mRNA expression” value (Yap1 mRNA [1]; 10 μM) was 3 % UTC. The “human Yap1 mRNA expression” value (Yap1 mRNA [2]; 0.04 μM) was 74 % UTC, the “human Yap1 mRNA expression” value (Yap1 mRNA [2]; 0.2 μM) was 44 % UTC and the “human Yap1 mRNA expression” value (Yap1 mRNA [2]; 1 μM) was 21 % UTC. For the same substance, the “human Yap1 mRNA expression” value (Yap1 mRNA [2]; 5 μM) was 11 % UTC, the “human Yap1 mRNA expression” value (Yap1 mRNA [3]; 0.04 μM) was 62 % UTC and the “human Yap1 mRNA expression” value (Yap1 mRNA [3]; 0.2 μM) was 26 % UTC. For the same substance, the “human Yap1 mRNA expression” value (Yap1 mRNA [3]; 1 μM) was 9 % UTC, the “human Yap1 mRNA expression” value (Yap1 mRNA [3]; 5 μM) was 4 % UTC and the “Antiproliferative effect” value (SNU-899 cells; 0.04 μM) was 82 % UTC. The “Antiproliferative effect” value (SNU-899 cells; 0.2 μM) was 78 % UTC, the “Antiproliferative effect” value (SNU-899 cells; 1 μM) was 71 % UTC and the “Antiproliferative effect” value (SNU-899 cells; 5 μM) was 62 % UTC. For the same substance, the “human Yap1 mRNA expression” value (Yap1 mRNA [4]; 0.04 μM) was 89 % UTC, the “human Yap1 mRNA expression” value (Yap1 mRNA [4]; 0.2 μM) was 67 % UTC and the “human Yap1 mRNA expression” value (Yap1 mRNA [4]; 1 μM) was 31 % UTC. For the same substance, the “human Yap1 mRNA expression” value (Yap1 mRNA [4]; 5 μM) was 11 % UTC, the “human Yap1 mRNA expression” value (Yap1 mRNA [5]; 0.04 μM) was 70 % UTC and the “human Yap1 mRNA expression” value (Yap1 mRNA [5]; 0.2 μM) was 37 % UTC. For the same substance, the “human Yap1 mRNA expression” value (Yap1 mRNA [5]; 1 μM) was 26 % UTC and the “human Yap1 mRNA expression” value (Yap1 mRNA [5]; 5 μM) was 14 % UTC.

In the case of “1198440 (AAGTGTATGTCAGAAG; cEt, 2'-MOE, 5-methylcytosine, phosphorothioate modifications, further chemistry not given here) [compound 1198440]”, the “Antiproliferative effect” value (BICR56 cells; 0.04 μM) is reported as 28 % UTC, the “Antiproliferative effect” value (BICR56 cells; 0.2 μM) is reported as 10 % UTC and the “Antiproliferative effect” value (BICR56 cells; 1 μM) is reported as 6 % UTC. For the same substance, the “Antiproliferative effect” value (BICR56 cells; 5 μM) was 4 % UTC, the “Antiproliferative effect” value (CAL33 cells; 0.04 μM) was 84 % UTC and the “Antiproliferative effect” value (CAL33 cells; 0.2 μM) was 67 % UTC. The “Antiproliferative effect” value (CAL33 cells; 1 μM) was 58 % UTC, the “Antiproliferative effect” value (CAL33 cells; 5 μM) was 44 % UTC and the “human Yap1 mRNA expression” value (Yap1 mRNA [1]; 0.08 μM) was 23 % UTC. The “human Yap1 mRNA expression” value (Yap1 mRNA [1]; 0.4 μM) was 6 % UTC, the “human Yap1 mRNA expression” value (Yap1 mRNA [1]; 2 μM) was 4 % UTC and the “human Yap1 mRNA expression” value (Yap1 mRNA [1]; 10 μM) was 4 % UTC. For the same substance, the “human Yap1 mRNA expression” value (Yap1 mRNA [2]; 0.04 μM) was 53 % UTC, the “human Yap1 mRNA expression” value (Yap1 mRNA [2]; 0.2 μM) was 18 % UTC and the “human Yap1 mRNA expression” value (Yap1 mRNA [2]; 1 μM) was 6 % UTC. For the same substance, the “human Yap1 mRNA expression” value (Yap1 mRNA [2]; 5 μM) was 2 % UTC, the “human Yap1 mRNA expression” value (Yap1 mRNA [3]; 0.04 μM) was 35 % UTC and the “human Yap1 mRNA expression” value (Yap1 mRNA [3]; 0.2 μM) was 12 % UTC. The “human Yap1 mRNA expression” value (Yap1 mRNA [3]; 1 μM) was 3 % UTC, the “human Yap1 mRNA expression” value (Yap1 mRNA [3]; 5 μM) was 2 % UTC and the “Antiproliferative effect” value (SNU-899 cells; 0.04 μM) was 82 % UTC. The “Antiproliferative effect” value (SNU-899 cells; 0.2 μM) was 75 % UTC, the “Antiproliferative effect” value (SNU-899 cells; 1 μM) was 69 % UTC and the “Antiproliferative effect” value (SNU-899 cells; 5 μM) was 66 % UTC. For the same substance, the “human Yap1 mRNA expression” value (Yap1 mRNA [4]; 0.04 μM) was 83 % UTC, the “human Yap1 mRNA expression” value (Yap1 mRNA [4]; 0.2 μM) was 43 % UTC and the “human Yap1 mRNA expression” value (Yap1 mRNA [4]; 1 μM) was 11 % UTC. For the same substance, the “human Yap1 mRNA expression” value (Yap1 mRNA [4]; 5 μM) was 3 % UTC, the “human Yap1 mRNA expression” value (Yap1 mRNA [5]; 0.04 μM) was 60 % UTC and the “human Yap1 mRNA expression” value (Yap1 mRNA [5]; 0.2 μM) was 26 % UTC. The “human Yap1 mRNA expression” value (Yap1 mRNA [5]; 1 μM) was 10 % UTC and the “human Yap1 mRNA expression” value (Yap1 mRNA [5]; 5 μM) was 5 % UTC.

“CGCCGATAAGGTACAC (cEt gapmer, phosphorothioate backbone, further chemistry not given here) [ION 792169, reference compound]” was tested, and the “Antiproliferative effect” value (BICR56 cells; 0.04 μM) was 106 % UTC, the “Antiproliferative effect” value (BICR56 cells; 0.2 μM) was 100 % UTC and the “Antiproliferative effect” value (BICR56 cells; 1 μM) was 92 % UTC. For the same substance, the “Antiproliferative effect” value (BICR56 cells; 5 μM) was 87 % UTC, the “Antiproliferative effect” value (CAL33 cells; 0.04 μM) was 92 % UTC and the “Antiproliferative effect” value (CAL33 cells; 0.2 μM) was 93 % UTC. The “Antiproliferative effect” value (CAL33 cells; 1 μM) was 81 % UTC, the “Antiproliferative effect” value (CAL33 cells; 5 μM) was 67 % UTC and the “human Yap1 mRNA expression” value (Yap1 mRNA [1]; 0.08 μM) was 95 % UTC. For the same substance, the “human Yap1 mRNA expression” value (Yap1 mRNA [1]; 0.4 μM) was 90 % UTC, the “human Yap1 mRNA expression” value (Yap1 mRNA [1]; 2 μM) was 97 % UTC and the “human Yap1 mRNA expression” value (Yap1 mRNA [1]; 10 μM) was 88 % UTC. For the same substance, the “human Yap1 mRNA expression” value (Yap1 mRNA [2]; 0.04 μM) was 86 % UTC, the “human Yap1 mRNA expression” value (Yap1 mRNA [2]; 0.2 μM) was 94 % UTC and the “human Yap1 mRNA expression” value (Yap1 mRNA [2]; 1 μM) was 96 % UTC. For the same substance, the “human Yap1 mRNA expression” value (Yap1 mRNA [2]; 5 μM) was 101 % UTC, the “human Yap1 mRNA expression” value (Yap1 mRNA [3]; 0.04 μM) was 106 % UTC and the “human Yap1 mRNA expression” value (Yap1 mRNA [3]; 0.2 μM) was 106 % UTC. For the same substance, the “human Yap1 mRNA expression” value (Yap1 mRNA [3]; 1 μM) was 111 % UTC, the “human Yap1 mRNA expression” value (Yap1 mRNA [3]; 5 μM) was 102 % UTC and the “Antiproliferative effect” value (SNU-899 cells; 0.04 μM) was 90 % UTC. The “Antiproliferative effect” value (SNU-899 cells; 0.2 μM) was 94 % UTC, the “Antiproliferative effect” value (SNU-899 cells; 1 μM) was 96 % UTC and the “Antiproliferative effect” value (SNU-899 cells; 5 μM) was 86 % UTC. The “human Yap1 mRNA expression” value (Yap1 mRNA [4]; 0.04 μM) was 89 % UTC, the “human Yap1 mRNA expression” value (Yap1 mRNA [4]; 0.2 μM) was 98 % UTC and the “human Yap1 mRNA expression” value (Yap1 mRNA [4]; 1 μM) was 102 % UTC. The “human Yap1 mRNA expression” value (Yap1 mRNA [4]; 5 μM) was 107 % UTC, the “human Yap1 mRNA expression” value (Yap1 mRNA [5]; 0.04 μM) was 100 % UTC and the “human Yap1 mRNA expression” value (Yap1 mRNA [5]; 0.2 μM) was 108 % UTC. For the same substance, the “human Yap1 mRNA expression” value (Yap1 mRNA [5]; 1 μM) was 112 % UTC and the “human Yap1 mRNA expression” value (Yap1 mRNA [5]; 5 μM) was 84 % UTC.
